# Measured values taken from ChEMBL document CHEMBL4680133, “Novel nitroimidazole derivatives evaluated for their trypanocidal, cytotoxic, and genotoxic activities” (Eur J Med Chem, 2020).
# pIC50: −log10 of the molar value.
# What was measured:
# Trypanosoma cruzi [1] = experiment: Antitrypanosomal activity against bloodstream form of Trypanosoma cruzi Y trypomastigotes infected in African green monkey Vero cells assessed as increase in parasite lysis measured after 24 hrs by Neubauer chamber method; assay type: functional, organism-based
# Trypanosoma cruzi [2] = experiment: Antitrypanosomal activity against Trypanosoma cruzi Y axenic amastigotes infected in African green monkey Vero cells after 24 hrs by MTT assay; assay type: functional, organism-based
# [3] = Selectivity index, ratio of GI50 for human HepG2 cells assessed as reduction in cell viability measured after 24 hrs by WST1 assay to IC50 for antitrypanosomal activity against bloodstream form of Trypanosoma cruzi Y trypomastigotes infected in African green monkey Vero cells; assay type: toxicity; conditions: read-out: Selectivity Index
# [4] = Selectivity index, ratio of GI50 for mouse RAW264.7 cells assessed as reduction in cell viability measured after 24 hrs by WST1 assay to IC50 for antitrypanosomal activity against Trypanosoma cruzi Y axenic amastigotes infected in African green monkey Vero cells; assay type: toxicity; conditions: read-out: Selectivity Index
# [5] = Selectivity index, ratio of GI50 for mouse RAW264.7 cells assessed as reduction in cell viability measured after 24 hrs by WST1 assay to IC50 for antitrypanosomal activity against bloodstream form of Trypanosoma cruzi Y trypomastigotes infected in African green monkey Vero cells; assay type: toxicity; conditions: read-out: Selectivity Index
# [6] = Cytotoxicity against human HepG2 cells assessed as reduction in cell viability measured after 24 hrs by WST1 assay; assay type: cell-based
# [7] = Cytotoxicity against mouse RAW264.7 cells assessed as reduction in cell viability measured after 24 hrs by WST1 assay; assay type: cell-based
# RAW264.7 [8] = experiment: Cytotoxicity against mouse RAW264.7 cells assessed as induction of membrane damage at 17.5 to 350 uM measured after 24 hrs by LDH assay; assay type: cell-based; conditions: raw264.7, 24 h, dose 17.5-350 µM
# [9] = Selectivity index, ratio of GI50 for human HepG2 cells assessed as reduction in cell viability measured after 24 hrs by WST1 assay to IC50 for antitrypanosomal activity against Trypanosoma cruzi Y axenic amastigotes infected in African green monkey Vero cells; assay type: toxicity; conditions: read-out: Selectivity Index
# [10] = Mutagenicity in Salmonella typhimurium TA97 measured after 20 mins in absence of S9 fraction by microsome assay; assay type: toxicity; conditions: salmonella enterica subsp. enterica serovar typhimurium, microsomes, dose 5-100 µg
# [11] = Mutagenicity in Salmonella typhimurium TA97 measured after 20 mins in presence of S9 fraction by microsome assay; assay type: toxicity, subcellular; conditions: salmonella enterica subsp. enterica serovar typhimurium, s9, 20 min, dose 5-100 µg
# [12] = Mutagenicity in Salmonella typhimurium TA98 measured after 20 mins in absence of S9 fraction by microsome assay; assay type: toxicity; conditions: salmonella enterica subsp. enterica serovar typhimurium, microsomes, dose 5-100 µg
# [13] = Mutagenicity in Salmonella typhimurium TA98 measured after 20 mins in presence of S9 fraction by microsome assay; assay type: toxicity, subcellular; conditions: salmonella enterica subsp. enterica serovar typhimurium, s9, 20 min, dose 5-100 µg
# [14] = Mutagenicity in Salmonella typhimurium TA100 measured after 20 mins in absence of S9 fraction by microsome assay; assay type: toxicity; conditions: salmonella enterica subsp. enterica serovar typhimurium, microsomes, dose 5-100 µg
# [15] = Mutagenicity in Salmonella typhimurium TA100 measured after 20 mins in presence of S9 fraction by microsome assay; assay type: toxicity, subcellular; conditions: salmonella enterica subsp. enterica serovar typhimurium, s9, 20 min, dose 5-100 µg
# [16] = Mutagenicity in Salmonella typhimurium TA102 measured after 20 mins in absence of S9 fraction by microsome assay; assay type: toxicity; conditions: salmonella enterica subsp. enterica serovar typhimurium, microsomes, dose 5-100 µg
# [17] = Mutagenicity in Salmonella typhimurium TA102 measured after 20 mins in presence of S9 fraction by microsome assay; assay type: toxicity, subcellular; conditions: salmonella enterica subsp. enterica serovar typhimurium, s9, 20 min, dose 5-100 µg
# [18] = Mutagenicity in Salmonella typhimurium TA97 assessed as revertant/ug measured after 20 mins in absence of S9 fraction by microsome assay; assay type: toxicity; conditions: salmonella enterica subsp. enterica serovar typhimurium, microsomes
# [19] = Mutagenicity in Salmonella typhimurium TA97 assessed as revertant/ug measured after 20 mins in presence of S9 fraction by microsome assay; assay type: toxicity, subcellular; conditions: salmonella enterica subsp. enterica serovar typhimurium, s9, 20 min
# [20] = Mutagenicity in Salmonella typhimurium TA100 assessed as revertant/ug measured after 20 mins in absence of S9 fraction by microsome assay; assay type: toxicity; conditions: salmonella enterica subsp. enterica serovar typhimurium, microsomes
# [21] = Mutagenicity in Salmonella typhimurium TA100 assessed as revertant/ug measured after 20 mins in presence of S9 fraction by microsome assay; assay type: toxicity, subcellular; conditions: salmonella enterica subsp. enterica serovar typhimurium, s9, 20 min
# [22] = Mutagenicity in Salmonella typhimurium YG1021 at 5 to 100 ug/plate after 20 mins by microsome assay; assay type: toxicity; conditions: salmonella enterica subsp. enterica serovar typhimurium, microsomes
# [23] = Mutagenicity in Salmonella typhimurium YG1024 at 5 to 100 ug/plate after 20 mins by microsome assay; assay type: toxicity; conditions: salmonella enterica subsp. enterica serovar typhimurium, microsomes, dose 5-100 µg
# [24] = Toxicity in Salmonella typhimurium YG1021 at 5 to 100 ug/plate after 20 mins by colony counting method; conditions: salmonella enterica subsp. enterica serovar typhimurium, dose 5-100 µg
# RAW264.7 [25] = experiment: Genotoxicity in mouse RAW264.7 cells assessed as mitotic index at 175 uM measured after 24 hrs by micronucleus test (reference value: 40 to 249); assay type: toxicity, cell-based; conditions: raw264.7, 24 h
# [26] = Genotoxicity in mouse RAW264.7 cells assessed as survival at 175 uM measured after 24 hrs by micronucleus test (reference value: 100%); assay type: toxicity, cell-based; conditions: read-out: Survival
# HepG2 [27] = experiment: Genotoxicity in human HepG2 assessed as mitotic index at 175 uM measured after 24 hrs by micronucleus test (reference value: 61 to 108); assay type: toxicity, cell-based; conditions: hepg2, 24 h
# [28] = Genotoxicity in human HepG2 assessed as survival at 175 uM measured after 24 hrs by micronucleus test (reference value: 100%); assay type: toxicity, cell-based; conditions: HepG2 cells, read-out: Survival
# [29] = Genotoxicity in human HepG2 assessed as survival at 3500 uM measured after 24 hrs by micronucleus test (reference value: 100%); assay type: toxicity, cell-based; conditions: HepG2 cells, read-out: Survival
# [30] = Toxicity in Salmonella typhimurium YG1024 at 5 to 100 ug/plate after 20 mins by colony counting method; conditions: salmonella enterica subsp. enterica serovar typhimurium, dose 5-100 µg
# RAW264.7 [31] = experiment: Genotoxicity in mouse RAW264.7 cells assessed as mitotic index at 213 uM measured after 24 hrs by micronucleus test (reference value: 40 to 249); assay type: toxicity, cell-based; conditions: raw264.7, 24 h
# RAW264.7 [32] = experiment: Genotoxicity in mouse RAW264.7 cells assessed as mitotic index at 427 uM measured after 24 hrs by micronucleus test (reference value: 40 to 249); assay type: toxicity, cell-based; conditions: raw264.7, 24 h
# RAW264.7 [33] = experiment: Genotoxicity in mouse RAW264.7 cells assessed as number of micronucleated cells at 213 uM measured after 24 hrs by micronucleus test (reference value: 12 to 15); assay type: toxicity, cell-based; conditions: raw264.7, 24 h
# RAW264.7 [34] = experiment: Genotoxicity in mouse RAW264.7 cells assessed as number of micronucleated cells at 427 uM measured after 24 hrs by micronucleus test (reference value: 12 to 15); assay type: toxicity, cell-based; conditions: raw264.7, 24 h
# RAW264.7 [35] = experiment: Genotoxicity in mouse RAW264.7 cells assessed as number of micronucleated cells at 2135 uM measured after 24 hrs by micronucleus test (reference value: 12 to 15); assay type: toxicity, cell-based; conditions: raw264.7, 24 h
# [36] = Genotoxicity in mouse RAW264.7 cells assessed as survival at 2135 uM measured after 24 hrs by micronucleus test (reference value: 100%); assay type: toxicity, cell-based; conditions: read-out: Survival
# [37] = Genotoxicity in mouse RAW264.7 cells assessed as survival at 4270 uM measured after 24 hrs by micronucleus test (reference value: 100%); assay type: toxicity, cell-based; conditions: read-out: Survival
# HepG2 [38] = experiment: Genotoxicity in human HepG2 assessed as mitotic index at 427 uM measured after 24 hrs by micronucleus test (reference value: 61 to 108); assay type: toxicity, cell-based; conditions: hepg2, 24 h
# HepG2 [39] = experiment: Genotoxicity in human HepG2 assessed as mitotic index at 2135 uM measured after 24 hrs by micronucleus test (reference value: 61 to 108); assay type: toxicity, cell-based; conditions: hepg2, 24 h
Compound,pIC50 (Trypanosoma cruzi [1]),pIC50 (Trypanosoma cruzi [2]),selectivity ratio at 24 h [3],selectivity ratio at 24 h [4],selectivity ratio at 24 h [5],GI50 at 24 h [6],GI50 at 24 h [7],selectivity ratio at 24 h [9],Activity [10],Activity [11],Activity [12],Activity [13],Activity [14],Activity [15],Activity [16],Activity [17],Activity [18],Activity [19],Activity [20],Activity [21],also measured
CCCCCc1ccc(-c2cn(-c3c([N+](=O)[O-])ncn3C)nn2)cc1,4.89,3.85,27,> 0.25,2.77,> 350 µM,35.8 µM,> 2.46,Toxic,Toxic,Non-Toxic,Non-Toxic,Toxic,Toxic,Toxic,Toxic,1.34 revertants/µg,8.494 µg,2.96 revertants/µg,2.46 revertants/µg,"Activity (RAW264.7 [8]): Toxic; Activity [22]: Toxic; Activity [23]: Toxic; Activity [24]: Toxic; Activity_index (RAW264.7 [25]): 245; viability at 24 h, 175 µM [26]: 99%; Activity_index (HepG2 [27]): 111; viability at 24 h, 175 µM [28]: 99%; viability at 24 h, 3500 µM [29]: 64%"
Cn1cnc([N+](=O)[O-])c1-n1cc(C2CC2)nn1,5.27,4.92,> 79,> 35.5,> 79,> 427 µM,> 427 µM,> 35.5,Toxic,Toxic,Non-Toxic,Non-Toxic,Toxic,Toxic,Toxic,Toxic,6.31 revertants/µg,3.833 µg,2.42 revertants/µg,0.278 revertants/µg,"Activity [22]: Non-Toxic; Activity [23]: Non-Toxic; Activity [24]: Non-Toxic; Activity [30]: Non-Toxic; Activity_index (RAW264.7 [31]): 30; Activity_index (RAW264.7 [32]): 34; Activity (RAW264.7 [33]): 12; Activity (RAW264.7 [34]): 11; Activity (RAW264.7 [35]): 19; viability at 24 h, 2135 µM [36]: 96%; viability at 24 h, 4270 µM [37]: 94%; Activity_index (HepG2 [38]): 106; Activity_index (HepG2 [39]): 101"
